Drawing on patent publication US7632829B2, “Diazepan derivatives” (Hoffmann-La Roche Inc., priority 2006, dated 2009), this text covers IC50 for 34 molecules.

The IC50 is the point on the concentration scale where inhibition reaches its midpoint.

The test deals with T1, human chemokine receptor 2 isoform B (Homo sapiens, UniProt P41597).
T1 construct: host or cells: CHOK1-CCR2B-A5 (CHO-K1)
T1 sequence (P41597 1-360 isoform P41597-2): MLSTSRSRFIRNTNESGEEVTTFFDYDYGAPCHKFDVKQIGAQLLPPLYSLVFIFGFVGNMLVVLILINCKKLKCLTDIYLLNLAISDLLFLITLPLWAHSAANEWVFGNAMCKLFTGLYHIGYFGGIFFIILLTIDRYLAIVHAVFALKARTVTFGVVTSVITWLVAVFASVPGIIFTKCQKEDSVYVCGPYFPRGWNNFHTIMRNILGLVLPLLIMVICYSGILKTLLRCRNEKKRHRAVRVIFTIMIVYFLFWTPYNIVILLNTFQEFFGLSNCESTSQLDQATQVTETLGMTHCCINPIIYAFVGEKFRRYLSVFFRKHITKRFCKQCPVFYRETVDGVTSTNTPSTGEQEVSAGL
Description: Calcium mobilization assay (FLIPR, CHOK1-CCR2B-A5 cells, 20 nM MCP-1). The settings on record: Ca mobilisation assay, CCR2, antagonist activity vs 20 nM MCP-1. The format is cell-based. The essentials: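 FLIPR Fluo-4 calcium readout in CHO-K1 cells stably overexpressing human CCR2B; compounds first monitored 80 s for agonist activity, then after 20-30 min at 30 °C challenged with 20 nM MCP-1. Response is max minus basal fluorescence; antagonist value is concentration giving 50% inhibition of specific calcium increase.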
Consider `C[C@@H]1CN(CCCCN2CCN(C(=O)/C=C/c3ccc(Cl)c(Cl)c3)CCC2=O)CC[C@H]1O` (racemic) [Example 455, (rac)-1-[(E)-3-(3,4-Dichloro-phenyl)-acryloyl]-4-[4-(trans-4-hydroxy-3-methyl-piperidin-1-yl)-butyl]-[1,4]diazepan-5-one], for which the IC50 worked out at 106 nM.
For `O=C(/C=C/c1ccc(Cl)c(Cl)c1)N1CCC(=O)N(CC(O)CN2CC[C@@H](F)[C@H](O)C2)CC1` (mixture of isomers) [Example 284], the IC50 came out at 717 nM.
As to `O=C(/C=C/c1ccc(Cl)c(Cl)c1)N1CCC(=O)N(CCN2CCCCC2)CC1` [Example 3, 1-[(E)-3-(3,4-Dichloro-phenyl)-acryloyl]-4-(2-piperidin-1-yl-ethyl)-[1,4]diazepan-5-one], the IC50 turned out to be 1240 nM.
As for `O=C(/C=C/c1ccc(Cl)c(Cl)c1)N1CCC(=O)N(CC(O)CN2CCCC(CO)C2)CC1` (racemic) [Example 289], the half-inhibitory concentration (IC50) stood at 296 nM.
On to `O=C1CC2(CCN(CCCN3CCN(C(=O)/C=C/c4ccc(Cl)c(Cl)c4)CCC3=O)CC2)C(=O)N1` [Example 87, 8-(3-{4-[(E)-3-(3,4-Dichloro-phenyl)-acryloyl]-7-oxo-[1,4]diazepan-1-yl}-propyl)-2,8-diaza-spiro[4.5]decane-1,3-dione], for which the IC50 worked out at 315 nM.
As for `COC[C@H]1CCN(C[C@H](O)CN2CCN(C(=O)/C=C/c3ccc(F)c(Cl)c3)CCC2=O)C[C@H]1O` (mixture of isomers) [Example 338, 1-[(E)-3-(3-Chloro-4-fluoro-phenyl)-acryloyl]-4-[(S)-2-hydroxy-3-(cis-3-hydroxy-4-methoxymethyl-piperidin-1-yl)-propyl]-[1,4]diazepan-5-one], the IC50 stood at 553 nM.
On to `O=C(/C=C/c1ccc(Cl)c(Cl)c1)N1CCC(=O)N(CCCCN2CCCC(O)C2)CC1` (racemic) [Example 161, 1-[(E)-3-(3,4-Dichloro-phenyl)-acryloyl]-4-[4-(3-hydroxy-piperidin-1-yl)-butyl]-[1,4]diazepan-5-one], for which the IC50 was found to be 47 nM.
Regarding `CCN(CCO)CCCCN1CCN(C(=O)/C=C/c2ccc(Cl)c(Cl)c2)CCC1=O` [Example 461], the IC50 stood at 614 nM.
For the molecule `O=C(/C=C/c1ccc(Cl)c(Cl)c1)N1CCC(=O)N(CCCN2CCC(O)C2)CC1` (racemic) [Example 71, (+/−)-1-[(E)-3-(3,4-Dichloro-phenyl)-acryloyl]-4-[3-(3-hydroxy-pyrrolidin-1-yl)-propyl]-[1,4]diazepan-5-one], the IC50 amounted to 566 nM.
For `O=C(/C=C/c1ccc(Cl)c(Cl)c1)N1CCC(=O)N(CCCN2CCC[C@H](O)C2)CC1` [Example 92, (S)-1-[(E)-3-(3,4-Dichloro-phenyl)-acryloyl]-4-[3-(3-hydroxy-piperidin-1-yl)-propyl]-[1,4]diazepan-5-one] the value was 189 nM; for `O=C(/C=C/c1ccc(Cl)c(Cl)c1)N1CCC(=O)N(CC(O)CN2CC[C@H](O)[C@H](F)C2)CC1` (relative stereo) [Example 287], 848 nM.
Consider “4-(3-{4-[(E)-3-(3,4-Dichloro-phenyl)-acryloyl]-7-oxo-[1,4]diazepan-1-yl}-propylamino)-cyclohexanecarboxylic acid amide [Example 77]”, for which the IC50 worked out at 326 nM.
In the case of `O=C(/C=C/c1ccc(Cl)c(Cl)c1)N1CCC(=O)N(CCCN2CC(O)CCC2CO)CC1` (racemic) [Example 273], the IC50 was found to be 313 nM.
Regarding `COC1COCCC1NCCCN1CCN(C(=O)C=Cc2ccc(Cl)c(Cl)c2)CCC1=O` (mixture of isomers) [Example 275, (rac,cis)-1-[(E)-3-(3,4-Dichloro-phenyl)-acryloyl]-4-[3-(3-methoxy-tetrahydro-pyran-4-ylamino)-propyl]-[1,4]diazepan-5-one], the IC50 turned out to be 1090 nM.
Regarding `C[C@@H]1[C@H](O)CCCN1CCCN1CCN(C(=O)/C=C/c2ccc(Cl)c(Cl)c2)CCC1=O` (racemic) [Example 226, (rac,cis)-1-[(E)-3-(3,4-Dichloro-phenyl)-acryloyl]-4-[3-(3-hydroxy-2-methyl-piperidin-1-yl)-propyl]-[1,4]diazepan-5-one], the 50% inhibitory concentration (IC50) is 464 nM.
Then `CC1CCN(CC(O)CCN2CCN(C(=O)/C=C/c3ccc(Cl)c(Cl)c3)CCC2=O)CC1O` (racemic) [Example 359], with 807 nM; and `O=C(/C=C/c1ccc(Cl)c(Cl)c1)N1CCC(=O)N(CC(O)CN2CCC(O)C3(CC3)C2)CC1` (racemic) [Example 317], with 528 nM; and `O=C(/C=C/c1ccc(Cl)c(Cl)c1)N1CCC(=O)N(CCCN2CCC(O)(c3ccccn3)CC2)CC1` [Example 69, 1-[(E)-3-(3,4-Dichloro-phenyl)-acryloyl]-4-[3-(4′-hydroxy-3′,4′,5′,6′-tetrahydro-2′H-[2,4′]bipyridinyl-1′-yl)-propyl]-[1,4]diazepan-5-one], with 185 nM.
As to `COC(=O)NC1CCN(CCCCN2CCN(C(=O)/C=C/c3ccc(F)c(Cl)c3)CCC2=O)CC1` [Example 401], the IC50 was found to be 92 nM.
Turning to `CC1CCCCC1NCCN1CCN(C(=O)C=Cc2ccc(Cl)c(Cl)c2)CCC1=O` (mixture of isomers) [Example 104, cis/trans-1-[(E)-3-(3,4-Dichloro-phenyl)-acryloyl]-4-[3-(2-methyl-cyclohexylamino)-ethyl]-[1,4]diazepan-5-one], the IC50 was determined as 598 nM.
On to `O=C(/C=C/c1ccc(Cl)c(Cl)c1)N1CCC(=O)N(CCCCN2CCC(CO)CC2)CC1` [Example 422], for which the IC50 was 70 nM.
As to `COCCN1CCN(CCCCN2CCN(C(=O)/C=C/c3ccc(Cl)c(Cl)c3)CCC2=O)CC1` [Example 439], the IC50 came out at 263 nM.
For the molecule `C[C@@]1(CO)CCN(CCCN2CCN(C(=O)/C=C/c3ccc(Cl)c(Cl)c3)CCC2=O)C[C@H]1O` (racemic) [Example 271, (rac,trans)-1-[(E)-3-(3,4-Dichloro-phenyl)-acryloyl]-4-[3-(3-hydroxy-4-hydroxymethyl-4-methyl-piperidin-1-yl)-propyl]-[1,4]diazepan-5-one], the IC50 came to 55 nM.
`O=C(/C=C/c1ccc(Cl)c(F)c1)N1CCC(=O)N(CCCN2CCC3(CC3)C(O)C2)CC1` (stereo not drawn) [Example 494, 1-[(E)-3-(4-Chloro-3-fluoro-phenyl)-acryloyl]-4-[3-((−)-4-hydroxy-6-aza-spiro[2.5]oct-6-yl)-propyl]-[1,4]diazepan-5-one]: the IC50 stood at 6 nM.
As to `CC1CCN(CCN2CCN(C(=O)/C=C/c3ccc(Cl)c(Cl)c3)CCC2=O)CC1` [Example 120, 1-[(E)-3-(3,4-Dichloro-phenyl)-acryloyl]-4-[3-(4-methyl-piperidin-1-yl)-ethyl]-[1,4]diazepan-5-one], the 50% inhibitory concentration (IC50) was found to be 1140 nM.
On to “(rac)-N-[1-(4-{4-[(E)-3-(3,4-Dichloro-phenyl)-acryloyl]-7-oxo-[1,4]diazepan-1-yl}-butyl)-piperidin-3-yl]-acetamide [Example 463]”, for which the IC50 was 348 nM.
For the molecule `CN(CCCN1CCN(C(=O)/C=C/c2ccc(Cl)c(Cl)c2)CCC1=O)C1CCCCC1` [Example 39, 4-[3-(Cyclohexyl-methyl-amino)-propyl]-1-[(E)-3-(3,4-dichloro-phenyl)-acryloyl]-[1,4] diazepan-5-one], the 50% inhibitory concentration (IC50) came to 538 nM.
Consider `CC1CC(O)CN(CCCN2CCN(C(=O)C=Cc3ccc(Cl)c(Cl)c3)CCC2=O)C1` (mixture of isomers) [Example 279, (rac,cis)-1-[(E)-3-(3,4-Dichloro-phenyl)-acryloyl]-4-[3-(3-hydroxy-5-methyl-piperidin-1-yl)-propyl]-[1,4]diazepan-5-one], for which the IC50 worked out at 5 nM.
Consider `C[N+]1(CCCN2CCN(C(=O)/C=C/c3ccc(Cl)c(Cl)c3)CCC2=O)CCC2(CC1)NC(=O)NC2=O` (stereo not shown) [Example 153, 8-(3-{4-[(E)-3-(3,4-Dichloro-phenyl)-acryloyl]-7-oxo-[1,4]diazepan-1-yl}-propyl)-8-methyl-2,4-dioxo-1,3-diaza-8-azonia-spiro[4.5]decane iodide], for which the IC50 amounted to 446 nM.
For `CC1(CO)CCN(CC(O)CN2CCN(C(=O)C=Cc3ccc(Cl)c(Cl)c3)CCC2=O)CC1O` (single isomer, unassigned) [Example 331], the IC50 is 59 nM.
With `COC1CCCN(CCCN2CCN(C(=O)/C=C/c3ccc(Cl)c(Cl)c3)CCC2=O)C1` (racemic) [Example 80, (+/−)-1-[(E)-3-(3,4-Dichloro-phenyl)-acryloyl]-4-[3-(3-methoxy-piperidin-1-yl)-propyl]-[1,4]diazepan-5-one], the IC50 was 263 nM.
`Cc1nc(C2CCN(CCCN3CCN(C(=O)/C=C/c4ccc(Cl)c(Cl)c4)CCC3=O)CC2)n[nH]1` [Example 58, 1-[(E)-3-(3,4-Dichloro-phenyl)-acryloyl]-4-{3-[4-(5-methyl-1H-[1,2,4]triazol-3-yl)-piperidin-1-yl]-propyl}-[1,4]diazepan-5-one]: the IC50 turned out to be 546 nM.
For `O=C(/C=C/c1ccc(Cl)c(Cl)c1)N1CCC(=O)N(CCCCN2CCOCC2)CC1` [Example 155, 1-[(E)-3-(3,4-Dichloro-phenyl)-acryloyl]-4-(4-morpholin-4-yl-butyl)-[1,4]diazepan-5-one], the IC50 worked out at 370 nM.
For `CN(CCCN1CCN(C(=O)/C=C/c2ccc(Cl)c(Cl)c2)CCC1=O)C1CCOCC1` [Example 78, 1-[(E)-3-(3,4-Dichloro-phenyl)-acryloyl]-4-{3-[methyl-(tetrahydro-pyran-4-yl)-amino]-propyl}-[1,4]diazepan-5-one] the value was 444 nM.
